Compound `CCOC(=O)c1cc2c(C(F)(F)F)cc(CP(=O)(OCC)OCC)cc2n1C` displayed a melting point of 95 to 96.5 °C.

`COCCOCCOC(=O)C#CC(=O)/C=C/c1ccc(OC)cc1` returned a melting point of 41 to 42 °C.

Regarding `Nc1cc(C(F)(F)F)c(-c2cc(Br)c(N)cc2C(F)(F)F)cc1Br`, the melting point was 154 to 157 °C.

Turning to `CS(=O)(=O)c1cc(Cl)cc(-c2cccnc2-c2cccnc2)c1`, the melting point was found to be 135 °C.

Compound `C=C(C)CN1C(=O)c2cscc2Nc2ccccc21` returned a melting point of 161 to 163 °C.

With `Cc1ccccc1C(=S)N1CC1C#N` (stereo unspecified), the melting point is 67 to 69 °C.

Compound `CC(=O)Nc1nc(-c2ccccc2)c(CCOC(C)=O)c2ncnn12` came in with a melting point of 79 to 80 °C.

The compound `O=C(O)COc1cccc(CCCOC(c2ccccc2)c2ccccc2)c1` displayed a melting point of 110 to 112 °C.

In turn, `O=C(O)CCCc1cc2nc(Cl)ccc2n1S(=O)(=O)c1ccccc1OC(F)(F)F` had a melting point of 138 °C.

As to `Cn1ncc2c(=O)n3c(nc21)SCC3`, the melting point was 257 to 258 °C.

`CCCCn1c(=O)c2c(NC)n[nH]c2n(Cc2ccccc2)c1=O` displayed a melting point of 282 to 284 °C.

As to `CCOC(=O)c1cn(CC)c2nc(N3CCN(C)CC3)ncc2c1=O`, the melting point lay within 146 to 147 °C.

Regarding `OCC1CCN(c2nc3ccccc3s2)CC1`, the melting point was 76 to 80 °C.

Take `O=c1cc(CO)oc2cc(S)ccc12`: the melting point lay in the range of 139 to 140 °C.

`CNC1CC=C(c2c[nH]c3cc([N+](=O)[O-])ccc23)CC1` (stereo unspecified) gave a melting point of 170 to 172 °C.

The compound `Cc1ccc(-c2[nH]c(-c3ccc(C(F)(F)F)cc3)nc2C(=O)Nc2nccs2)s1` yielded a melting point of 235 to 237 °C.

Take `CCCCCCCCCCCCc1cc(O)ccc1S`: the melting point lay within 75 to 76 °C.

Turning to `CC(C)Cc1ccc(C(C)C(=O)OC2OC(=O)c3ccccc32)cc1` (stereo unspecified), the melting point lay within 62 to 65 °C.

For the compound `CC(C)(C)OC(=O)N1CC(c2ccc(N)nc2)C1`, the melting point was in the range of 103 to 104 °C.

`CCC1(C)CC(=O)C2(C)CCC3c4ccc(OC)cc4CCC3C12` (stereo unspecified) had a melting point of 104 to 107 °C.

Compound `NS(=O)(=O)c1ccc(N2CCN(Cc3ccc4c(c3)NC(=O)CO4)CC2)cc1` registered a melting point of 150 to 153 °C.

`COc1cccc(NC(=O)C(N)=O)c1C(N)=O` came in with a melting point of 252 to 255 °C.

The compound `COc1ccc(COc2cccc(C=C(C=O)C(C=O)=Cc3cccc(OCc4ccc(OC)cc4)c3)c2)cc1` registered a melting point of 117 to 119 °C.

`CC(C)Cc1nc(-c2cccnc2)c[nH]c1=O` had a melting point of 195 to 196 °C.

In turn, `Cc1n[nH]c(/C=C/c2ccccc2)n1` showed a melting point of 131 to 134 °C.

Regarding `CCOC(=O)CC(NC(=O)c1ccccc1)C(=O)c1cccs1` (stereo unspecified), the melting point amounted to 75 °C.

`CCS(=O)(=O)CCC(=O)NNC(=O)N1Cc2ccccc2Oc2ccc([N+](=O)[O-])cc21`: the melting point lay within 198 to 200 °C.

Consider `COc1cccc2c1C(=O)c1cccc3cc(O)cc-2c13`, for which the melting point lay within 298 to 300 °C.

On to `COc1nc(N)nc(-c2ccc(S(C)(=O)=O)cc2)c1-c1ccc(=O)n(C(C)C)n1`, for which the melting point fell in the range of 148 to 151 °C.

For `c1cn2cc(-c3cnc4cc[nH]c4c3)cc(Nc3cc4n(n3)CCOC4)c2n1`, the melting point is 192 to 195 °C.

Compound `Cc1ccc(S(=O)(=O)NCCCN(CCN(CCCNS(=O)(=O)c2ccc(C)cc2)S(=O)(=O)c2ccc(C)cc2)S(=O)(=O)c2ccc(C)cc2)cc1` gave a melting point of 141 to 142 °C.

Compound `COc1ccc(N)c(CCc2cc(OC)ccc2N)c1` had a melting point of 69 to 71 °C.

Take `CCOC(=O)c1ccc(-c2cc(-c3ccc4c(c3)C(C)(C)CCC4(C)C)ccc2OS(=O)(=O)C(F)(F)F)cc1`: the melting point is 110 to 113 °C.

`CC(C)OC(=O)CSc1ncnc2c(O)n(C)nc12` yielded a melting point of 192 to 194 °C.

Consider `CC(=O)N1CCC2(CC1)Cc1cc([N+](=O)[O-])ccc1O2`, for which the melting point lay within 149 to 150 °C.

As to `OCc1cnc(-c2ccc(Cl)cc2)o1`, the melting point fell in the range of 115 to 116 °C.

The compound `COC(=O)c1cc(NC(=O)OC(C)(C)C)c([N+](=O)[O-])cc1C#Cc1ccccc1` yielded a melting point of 173 °C.

`COc1cc(C)nc(N(C)C(=O)NS(=O)(=O)c2cc(Cl)ccc2Cl)n1` registered a melting point of 182 to 185 °C.

Turning to `CCCc1cc(OCC)c2c(c1OC)S(=O)(=O)N(CCl)C2=O`, the melting point fell in the range of 131 to 133 °C.

For `COc1ccc2nc3c(c(-c4ccc(F)cc4)c2c1)CNC3=O`, the melting point was 284 to 286 °C.

Compound `CCN1CCN(S(=O)(=O)c2ccc(C(CC3CCCC3)C(=O)Nc3nc4ccc(OC)nc4s3)cc2)CC1` (stereo unspecified) had a melting point of 106 to 110 °C.

`C#CCOC(=O)C1=C(C)NC(C)=C(C(=O)OCC)C1c1cccc([N+](=O)[O-])c1` (stereo unspecified) showed a melting point of 132 to 133 °C.

`CC(C)c1n[nH]c(=O)n1N`: the melting point is 172 °C.

`c1cn(CC2CCCCC2)cn1` registered a melting point of 25 to 30 °C.

Compound `CCCC[C@H](NC(=O)[C@H](C)NC(=O)OCc1ccccc1)C(=O)CSCc1ccco1` yielded a melting point of 85 to 87 °C.

`OC[C@@H]1CNCc2cc3ccc(C(F)(F)F)cc3n21`: the melting point lay in the range of 126 to 127 °C.

Compound `COC(=O)c1ccc(CN(OC)C(=O)C=C(O)C(=O)O)cc1` came in with a melting point of 123 to 125 °C.

The compound `C#Cc1c2ccccc2nc2c(OC)ccc(OC)c12` gave a melting point of 155 to 157 °C.

Take `CN(C)C(=O)n1cc(C(=O)C2CSC(c3cccnc3)N2)c2ccc(OCc3ccc(F)cc3)cc21` (stereo unspecified): the melting point was in the range of 71 to 74 °C.

Consider `CC(C)c1ccc(S(=O)(=O)n2c(Cc3cccc(C(=O)O)c3)cc3cc(Cl)ccc32)cc1`, for which the melting point is 170 °C.

For the compound `CC(C)(C)OC(=O)[C@@H]1CS[C@H](c2ccccc2)N1C(=O)CNC(=O)Nc1cccc(C(=O)O)c1`, the melting point stood at 134 °C.

In the case of `Clc1ccc2c(c1)CCC(c1cccnc1)O2` (stereo unspecified), the melting point lay within 60 to 63 °C.

Compound `Cc1nc2c(o1)-c1c(SC(C)C)sc(C(N)=O)c1CC2` returned a melting point of 230 to 231 °C.

On to `N#Cc1cc(Br)cc(CO)c1`, for which the melting point was 108 to 109 °C.

In turn, `COc1ccc2c3c(oc2c1)CCC(C(=O)O)=C3` yielded a melting point of 228 to 231 °C.

Compound `COC(=O)C1=CCC(=C2CCc3nc4c(nc3C2=O)C(C)(C)CCC4(C)C)C=C1` had a melting point of 149 to 151 °C.

The compound `CCc1cc2c(cc1OCc1ccccc1)CCC1C2CCC2(C)C(CCO[Si](c3ccccc3)(c3ccccc3)C(C)(C)C)CCC12` (stereo unspecified) displayed a melting point of 48 to 50 °C.

`Nc1cc(F)c(F)cc1C(=O)NOCc1ccccc1` registered a melting point of 125 to 126 °C.

Take `CCCCCCCCOc1ccc(C(=O)Oc2ccc(-c3ccc(O)cc3)cc2)cc1`: the melting point was 183 °C.

In turn, `CC1(C)C(=O)Nc2cc3[nH]c(-c4c[nH]c5ccccc45)nc3cc21` returned a melting point of 243 to 245 °C.

Take `COC(=O)C(=O)c1ccc(OC/C=C/c2ccccc2)cc1`: the melting point was in the range of 80 to 82 °C.

Turning to `CN(C)C(=O)N1CCC(Oc2c(F)c(F)c(F)c(F)c2F)(c2ccccc2)CC1`, the melting point lay within 92 to 96 °C.

With `Cc1nc(NC(=O)NS(=O)(=O)c2cccc3c2nnn3C)nc2c1CCO2`, the melting point lay in the range of 234 to 240 °C.

Regarding `COc1cccc(CC(=S)N2CCCCC2)c1`, the melting point fell in the range of 55 to 56 °C.

As to `CC(C)[C@@H](NS(=O)(=O)c1ccc(-c2ccsc2)cc1)C(=O)O`, the melting point was determined as 169 °C.

Take `CC(C)(C)c1nc(N)nc(C(C)(C)C)c1O`: the melting point lay in the range of 92 to 93 °C.

The compound `CC(C)(C)c1cc(-c2nn(CC(N)=O)c3ncccc23)cc(C(C)(C)C)c1O` yielded a melting point of 162 to 164 °C.

`CCOC(=O)c1c(CC(=O)O)n(-c2ccc(OC(F)(F)F)cc2)c2ccc(Oc3ccc(CCl)cn3)cc12` gave a melting point of 168 to 170 °C.

`O=C(Nc1ccc(C[C@H](NS(=O)(=O)NCC2CCCCC2)C(=O)O)cc1)c1c(Cl)cncc1Cl`: the melting point was determined as 196 °C.

`CCCOC(=O)OC1CSC(Oc2ccc3c(C)cc(=O)oc3c2)C(OC(=O)OCCC)C1OC(=O)OCCC` (stereo unspecified) displayed a melting point of 134 °C.

In turn, `O=[N+]([O-])c1c(NCCCO)cc(Cl)cc1NCCCO` gave a melting point of 127 °C.

Regarding `CCCC(=O)C=CC(=O)O`, the melting point fell in the range of 100 to 102 °C.

Take `CCCC(=O)Nc1c(C)c2c(c(Cc3ccc(C(C)C)cc3)c1C)OCC2`: the melting point was 168 to 169 °C.

On to `CCCCn1c(=O)n(CCC(C)(O)C#CCN(CCC)CCC)c(=O)c2c1ncn2CCC` (stereo unspecified), for which the melting point stood at 101 °C.

For the compound `CSc1onc(-c2ccccc2)c1-c1ccc(S(N)(=O)=O)cc1`, the melting point fell in the range of 135 to 137 °C.

Take `CC(C)CC1(C)C(=O)NCCN1Cc1ccccc1` (stereo unspecified): the melting point lay within 158 to 161 °C.

The compound `COc1ccc(-c2ccc([N+](=O)[O-])cc2)cc1OC1CC2CCC1C2` (stereo unspecified) yielded a melting point of 134 to 135 °C.

Turning to `Cc1cc(NC(=O)N(C)C)no1`, the melting point fell in the range of 150 to 152 °C.

In the case of `CC(CC(=O)O)CC(=O)CCCCCCCCCCC(=O)O` (stereo unspecified), the melting point lay in the range of 84 to 85 °C.

Turning to `O=[N+]([O-])c1cc(Cl)c(Oc2ccccc2)c(Cl)c1Oc1ccccc1`, the melting point was determined as 164 °C.

In the case of `O=C(CNC(=O)c1ccccc1)NC1CCN(CCc2c[nH]c3ccccc23)CC1`, the melting point was 236 to 240 °C.

`CCOC(=O)Nc1cc(C(=O)N(C)OC)c(Cl)cc1F` returned a melting point of 121 °C.

For the compound `OC1(CCc2ccccc2)CCOCC1`, the melting point is 74 to 75 °C.

Compound `CCOC(=O)c1nc(-c2ccc(Cl)cc2F)nc(N)c1Cl` gave a melting point of 131 to 132 °C.

Compound `CCC(=O)Oc1ccc(-c2nn(C3CCCC3)c3c(F)cccc23)cc1` returned a melting point of 60 to 61 °C.

For `COC(=O)CCc1oc(Cl)nc1-c1ccc(Cl)cc1`, the melting point lay in the range of 71 to 72 °C.

With `Cc1cc(NC(=O)CN2CCN(c3ccccc3C#N)CC2)ccc1Br`, the melting point was in the range of 143 to 145 °C.

Compound `CNC(=O)c1cnn(-c2ccccc2)c1Cl` had a melting point of 182 to 183 °C.

The compound `CS(=O)(=O)c1ccc(-c2cc(C(F)(F)F)nn2-c2ccc(OC(F)(F)F)cc2)cc1F` yielded a melting point of 110 to 112 °C.

`C[C@H]1CCCC(C)(C)[C@@H]1[C@H](O)c1ccccc1` came in with a melting point of 32 to 34 °C.

`CN1CCc2cc(S(=O)(=O)Nc3cnc4cc(Cl)ccc4n3)ccc21` yielded a melting point of 189 to 190 °C.

Usually melting point stands for the temperature of the solid-liquid transition.
